Measurements published in paper PMC10206524 (European journal of medicinal chemistry, 2022).

Assays:
Type in all cases: biochemical
[1] = molecular target: T1, human SIRT5 (Homo sapiens, UniProt Q9NXA8); test: Trypsin coupled fluorescence-based inhibition assay, SIRT5; conditions: for fold increased potency against SIRT5 in comparison with 11: more potent than hit 11
T1 sequence (Q9NXA8 37-310): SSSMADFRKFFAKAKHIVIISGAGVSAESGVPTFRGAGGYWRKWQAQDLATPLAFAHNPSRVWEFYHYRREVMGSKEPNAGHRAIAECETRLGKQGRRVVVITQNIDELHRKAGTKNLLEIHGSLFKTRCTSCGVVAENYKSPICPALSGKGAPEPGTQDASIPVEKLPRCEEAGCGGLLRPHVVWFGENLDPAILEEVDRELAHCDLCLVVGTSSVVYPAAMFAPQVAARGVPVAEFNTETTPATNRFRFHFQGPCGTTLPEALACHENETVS

[2] = molecular target: T2, human SIRT1 (Homo sapiens, UniProt Q96EB6); test: Fluorescence-based inhibition assay, SIRT1; conditions: at the highest concentration of 400 μM
T2 sequence (Q96EB6 1-747): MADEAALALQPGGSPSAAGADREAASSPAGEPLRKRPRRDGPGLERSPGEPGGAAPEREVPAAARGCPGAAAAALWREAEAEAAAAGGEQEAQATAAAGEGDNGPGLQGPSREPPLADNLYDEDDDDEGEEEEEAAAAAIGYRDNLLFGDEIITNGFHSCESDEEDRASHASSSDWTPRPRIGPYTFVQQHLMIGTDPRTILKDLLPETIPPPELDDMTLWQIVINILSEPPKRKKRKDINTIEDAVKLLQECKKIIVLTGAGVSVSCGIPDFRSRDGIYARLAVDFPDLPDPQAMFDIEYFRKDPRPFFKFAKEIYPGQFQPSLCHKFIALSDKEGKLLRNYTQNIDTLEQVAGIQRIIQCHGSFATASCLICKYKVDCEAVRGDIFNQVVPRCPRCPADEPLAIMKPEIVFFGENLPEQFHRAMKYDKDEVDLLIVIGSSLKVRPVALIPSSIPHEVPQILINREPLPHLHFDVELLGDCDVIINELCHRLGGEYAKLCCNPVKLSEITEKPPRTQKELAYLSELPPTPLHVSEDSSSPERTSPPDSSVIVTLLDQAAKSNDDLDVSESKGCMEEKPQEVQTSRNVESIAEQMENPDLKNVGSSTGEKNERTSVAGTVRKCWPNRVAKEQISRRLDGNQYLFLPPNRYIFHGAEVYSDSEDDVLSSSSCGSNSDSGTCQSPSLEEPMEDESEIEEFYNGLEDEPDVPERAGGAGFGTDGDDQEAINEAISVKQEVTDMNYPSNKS

[3] = molecular target: T3, human SIRT2 (Homo sapiens, UniProt Q8IXJ6); test: Fluorescence-based inhibition assay, SIRT2; conditions: at the highest concentration of 400 μM
T3 sequence (Q8IXJ6 1-389): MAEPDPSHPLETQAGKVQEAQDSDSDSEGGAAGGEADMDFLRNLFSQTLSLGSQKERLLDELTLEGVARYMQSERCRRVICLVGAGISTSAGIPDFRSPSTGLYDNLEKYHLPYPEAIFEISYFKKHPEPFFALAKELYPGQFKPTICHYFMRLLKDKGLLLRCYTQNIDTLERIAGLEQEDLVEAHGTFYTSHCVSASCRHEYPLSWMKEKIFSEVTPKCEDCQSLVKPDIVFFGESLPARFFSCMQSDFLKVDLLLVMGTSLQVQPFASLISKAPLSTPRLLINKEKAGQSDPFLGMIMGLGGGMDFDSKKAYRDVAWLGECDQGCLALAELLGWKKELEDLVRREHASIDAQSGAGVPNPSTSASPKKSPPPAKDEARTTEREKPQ

[4] = molecular target: T4, human SIRT3 (Homo sapiens, UniProt Q9NTG7); test: Fluorescence-based inhibition assay, SIRT3; conditions: at the highest concentration of 400 μM
T4 sequence (Q9NTG7 1-399): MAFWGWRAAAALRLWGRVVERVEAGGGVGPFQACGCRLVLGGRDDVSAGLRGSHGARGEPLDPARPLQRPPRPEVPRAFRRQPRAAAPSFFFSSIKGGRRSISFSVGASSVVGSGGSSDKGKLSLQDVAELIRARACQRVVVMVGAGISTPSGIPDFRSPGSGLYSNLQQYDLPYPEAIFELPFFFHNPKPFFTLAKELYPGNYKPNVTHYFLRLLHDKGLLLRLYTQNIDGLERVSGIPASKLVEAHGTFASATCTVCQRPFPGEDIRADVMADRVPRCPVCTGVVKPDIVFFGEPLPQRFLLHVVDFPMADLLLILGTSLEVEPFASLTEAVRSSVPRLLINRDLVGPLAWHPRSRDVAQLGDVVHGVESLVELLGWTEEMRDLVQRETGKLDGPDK

SMILES	fold increased potency against SIRT5 in comparison with 11 [1] [fold]	inhibition against SIRT1 [2]	inhibition against SIRT2 [3]	inhibition against SIRT3 [4]	fold less potent than 11 against SIRT5 ([1]; less potent than hit 11)
CC(=O)Nc1ccc(-c2csc(Nc3ccc(C(=O)O)c(O)c3)n2)cc1 [Compound 11, 4-((4-(4-acetamidophenyl)thiazol-2-yl)amino)-2-hydroxybenzoic acid]		no inhibitions	no inhibitions	no inhibitions	
CC(=O)Nc1ccc(-c2csc(Nc3ccc(C(=O)O)cc3)n2)cc1 [Compound 13, 4-((4-(4-acetamidophenyl)thiazol-2-yl)amino)benzoic acid]					about 8 fold

Next, values leading:

fold increased potency against SIRT5 in comparison with 11 [1] [fold]	inhibition against SIRT1 [2]	inhibition against SIRT2 [3]	inhibition against SIRT3 [4]	fold less potent than 11 against SIRT5 ([1]; less potent than hit 11)	SMILES
10	no inhibition	no inhibition	no inhibition		O=C(O)c1ccc(NC(=S)Nc2nc(-c3ccc([N+](=O)[O-])c(S(=O)(=O)NCc4ccccc4)c3)cs2)cc1O [Compound 43, 4-(3-(4-(3-(N-benzylsulfamoyl)-4-nitrophenyl)thiazol-2-yl)thioureido)-2-hydroxybenzoic acid]
6					O=C(O)c1ccc(NC(=S)Nc2nc(-c3ccc([N+](=O)[O-])cc3)cs2)cc1O [Compound 30, 2-hydroxy-4-(3-(4-(4-nitrophenyl)thiazol-2-yl)thioureido)benzoic acid]
2	no inhibition	no inhibition	no inhibition		CC(=O)Nc1ccc(-c2csc(NC(=S)Nc3ccc(C(=O)O)c(O)c3)n2)cc1 [Compound 14, 4-(3-(4-(4-acetamidophenyl)thiazol-2-yl)thioureido)-2-hydroxybenzoic acid]
